Measured values: US20110086759A1, “CHEMICAL COMPOUNDS” (SYNGENTA CROP PROTECTION, INC., priority 2007, published 2011)

Columns and labels:
Format in all cases: in vivo
[1] = test system: Echinochloa crus-galli (ECHCG); assay: Post-emergence biological efficacy, glasshouse pot test; settings: 312 h
Outline: (§1)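 Pot-grown weeds were sprayed 8 days after sowing with test compound in acetone/water (50:50) with 0.5% Tween 20 at 1000 or 250 g/ha. Glasshouse at 24/16° C day/night, 14 h light, 65% humidity. Damage scored 0-100 (100 = total damage) after 13 days.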

Solanum nigrum (SOLNI) [2] = assay: as above; settings: 312 h
Outline: as §1

Setaria faberi (SETFA) [3] = assay: as above; settings: 312 h
Outline: as §1

[4] = test system: Alopecurus myosuroides (ALOMY); assay: as above; settings: 312 h
Outline: as §1

[5] = test system: Ipomea hederaceae (IPOHE); assay: as above; settings: Ipomoea hederacea, 312 h
Outline: as §1

[6] = test system: Amaranthus retoflexus (AMARE); assay: as above; settings: Amaranthus retroflexus, 312 h
Outline: as §1

[7] = test system: Echinochloa crus-galli (ECHCG); assay: Pre-emergence biological efficacy, glasshouse pot test; settings: 312 h
Outline: (§2)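 Visual phytotoxicity (0 no damage, 100 total damage) assessed 13 d after treatment. Soil-sown pots sprayed one day post-sowing; dose 1000 or 250 g/ha; formulation in acetone/water 50:50, 0.5% Tween 20.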

Solanum nigrum (SOLNI) [8] = assay: as above; settings: 312 h
Outline: as §2

Setaria faberi (SETFA) [9] = assay: as above; settings: 312 h
Outline: as §2

[10] = test system: Alopecurus myosuroides (ALOMY); assay: as above; settings: 312 h
Outline: as §2

[11] = test system: Ipomea hederaceae (IPOHE); assay: as above; settings: Ipomoea hederacea, 312 h
Outline: as §2

[12] = test system: Amaranthus retoflexus (AMARE); assay: as above; settings: Amaranthus retroflexus, 312 h
Outline: as §2

[13] = Rate 1,000 g/ha, post-emergence spray, evaluated after 13 days (100=total damage to plant; 0=no damage to plant), read-out: Percentage damage caused to weed species, post-emergence, ECHCG
[14] = Rate 1,000 g/ha, post-emergence spray, evaluated after 13 days (100=total damage to plant; 0=no damage to plant), read-out: Percentage damage caused to weed species, post-emergence, SOLNI
[15] = Rate 1,000 g/ha, post-emergence spray, evaluated after 13 days (100=total damage to plant; 0=no damage to plant), read-out: Percentage damage caused to weed species, post-emergence, SETFA
[16] = Rate 1,000 g/ha, post-emergence spray, evaluated after 13 days (100=total damage to plant; 0=no damage to plant), read-out: Percentage damage caused to weed species, post-emergence, ALOMY
[17] = Rate 1,000 g/ha, post-emergence spray, evaluated after 13 days (100=total damage to plant; 0=no damage to plant), read-out: Percentage damage caused to weed species, post-emergence, IPOHE
[18] = Rate 1,000 g/ha, post-emergence spray, evaluated after 13 days (100=total damage to plant; 0=no damage to plant), read-out: Percentage damage caused to weed species, post-emergence, AMARE
[19] = pre-emergence, rate 1,000 g/ha, evaluated after 13 days (100=total damage to plant; 0=no damage), read-out: Percentage damage caused to weed species, ECHCG
[20] = pre-emergence, rate 1,000 g/ha, evaluated after 13 days (100=total damage to plant; 0=no damage), read-out: Percentage damage caused to weed species, SOLNI
[21] = pre-emergence, rate 1,000 g/ha, evaluated after 13 days (100=total damage to plant; 0=no damage), read-out: Percentage damage caused to weed species, SETFA
[22] = pre-emergence, rate 1,000 g/ha, evaluated after 13 days (100=total damage to plant; 0=no damage), read-out: Percentage damage caused to weed species, ALOMY
[23] = pre-emergence, rate 1,000 g/ha, evaluated after 13 days (100=total damage to plant; 0=no damage), read-out: Percentage damage caused to weed species, IPOHE
[24] = pre-emergence, rate 1,000 g/ha, evaluated after 13 days (100=total damage to plant; 0=no damage), read-out: Percentage damage caused to weed species, AMARE
[25] = post-emergence, 1,000 g/ha, evaluated after 13 days (100=total damage; 0=no damage), read-out: Percentage damage caused to weed species, ECHCG
[26] = post-emergence, 1,000 g/ha, evaluated after 13 days (100=total damage; 0=no damage), read-out: Percentage damage caused to weed species, SOLNI
[27] = post-emergence, 1,000 g/ha, evaluated after 13 days (100=total damage; 0=no damage), read-out: Percentage damage caused to weed species, SETFA
[28] = post-emergence, 1,000 g/ha, evaluated after 13 days (100=total damage; 0=no damage), read-out: Percentage damage caused to weed species, ALOMY
[29] = post-emergence, 1,000 g/ha, evaluated after 13 days (100=total damage; 0=no damage), read-out: Percentage damage caused to weed species, IPOHE
[30] = post-emergence, 1,000 g/ha, evaluated after 13 days (100=total damage; 0=no damage), read-out: Percentage damage caused to weed species, AMARE
[31] = pre-emergence, 1,000 g/ha, evaluated after 13 days (100=total damage; 0=no damage), read-out: Percentage damage ECHCG
[32] = pre-emergence, 1,000 g/ha, evaluated after 13 days (100=total damage; 0=no damage), read-out: Percentage damage SOLNI
[33] = pre-emergence, 1,000 g/ha, evaluated after 13 days (100=total damage; 0=no damage), read-out: Percentage damage SETFA
[34] = pre-emergence, 1,000 g/ha, evaluated after 13 days (100=total damage; 0=no damage), read-out: Percentage damage ALOMY
[35] = pre-emergence, 1,000 g/ha, evaluated after 13 days (100=total damage; 0=no damage), read-out: Percentage damage IPOHE
[36] = pre-emergence, 1,000 g/ha, evaluated after 13 days (100=total damage; 0=no damage), read-out: Percentage damage AMARE

Compound | pest or weed control at 1000 g/ha [1, 13] | pest or weed control at 1000 g/ha (Solanum nigrum (SOLNI) [2]; [14]) | pest or weed control at 1000 g/ha (Setaria faberi (SETFA) [3]; [15]) | pest or weed control at 1000 g/ha [4, 16] | pest or weed control at 1000 g/ha [5, 17] | pest or weed control at 1000 g/ha [6, 18] | pest or weed control at 1000 g/ha [7, 19] | pest or weed control at 1000 g/ha (Solanum nigrum (SOLNI) [8]; [20]) | pest or weed control at 1000 g/ha [1, 25] | pest or weed control at 1000 g/ha (Solanum nigrum (SOLNI) [2]; [26]) | pest or weed control at 1000 g/ha (Setaria faberi (SETFA) [3]; [27]) | pest or weed control at 1000 g/ha [4, 28] | pest or weed control at 1000 g/ha [5, 29] | pest or weed control at 1000 g/ha [6, 30] | pest or weed control at 1000 g/ha [7, 31] | pest or weed control at 1000 g/ha (Solanum nigrum (SOLNI) [8]; [32]) | pest or weed control at 1000 g/ha (Setaria faberi (SETFA) [9]; [33]) | pest or weed control at 1000 g/ha [10, 34] | pest or weed control at 1000 g/ha [11, 35] | pest or weed control at 1000 g/ha [12, 36] | also measured
CCN(Cc1ccccc1)c1nc(C2CC2)nc(C(=O)OC)c1Cl [Compound 6-60, 5-Chloro-2-cyclopropyl-4-([N-ethyl-N-phenylmethyl]-amino)-6-methoxycarbonyl-pyrimidine] | 70% | 90% | 90% | 30% | 100% | 100% | 20% | 100% | – | – | – | – | – | – | – | – | – | – | – | – | pest or weed control at 1000 g/ha (Setaria faberi (SETFA) [9]; [21]): 30%; pest or weed control at 1000 g/ha [10, 22]: 20%; pest or weed control at 1000 g/ha [11, 23]: 20%; pest or weed control at 1000 g/ha [12, 24]: 100%
COC(=O)c1nc(-c2ccc(Cl)c(N(C)C)c2F)nc(NCc2ccco2)c1Cl [Compound 261-48, 5-Chloro-2-(4-chloro-3-dimethylamino-2-fluorophenyl)-4-(furan-2-yl-methyl-amino)-6-methoxy-carbonylpyrimidine] | 70% | 80% | 90% | 50% | 60% | 100% | 90% | 40% | – | – | – | – | – | – | – | – | – | – | – | – | pest or weed control at 1000 g/ha (Setaria faberi (SETFA) [9]; [21]): 90%; pest or weed control at 1000 g/ha [10, 22]: 50%; pest or weed control at 1000 g/ha [11, 23]: 30%; pest or weed control at 1000 g/ha [12, 24]: 100%
COC(=O)c1nc(C2CC2)nc(NCc2cc(OC)c(OC)c(OC)c2)c1Cl [Compound 4-122, 5-Chloro-2-cyclopropyl-6-methoxycarbonyl-4-(3,4,5-trimethoxy-phenylmethyl-amino)pyrimidine] | – | – | – | – | – | – | – | – | 90% | 100% | 90% | 20% | 100% | 100% | 30% | 30% | 20% | 10% | 90% | 60% | –
COC(=O)c1nc(C2CC2)nc(NCc2ccccc2[N+](=O)[O-])c1Cl [Compound 4-90, 5-Chloro-2-cyclopropyl-6-methoxycarbonyl-4-(2-nitrophenyl-methylamino)-pyrimidine] | – | – | – | – | – | – | – | – | 80% | 100% | 100% | 50% | 100% | 100% | 60% | 100% | 80% | 50% | 100% | 100% | –
Cc1cccnc1CNc1nc(C2CC2)nc(C(=O)O)c1Cl [Compound 1-153, 5-Chloro-2-cyclopropyl-4-(3-methylpyridin-2-ylmethylamino)-pyrimidine-6-carboxylic acid] | – | – | – | – | – | – | – | – | 60% | 90% | 90% | 50% | 70% | 100% | 50% | 90% | 70% | 40% | 100% | 100% | –
COC(=O)c1nc(C2CC2)nc(N[C@H](c2ccccc2)[C@@H](O)c2ccccc2)c1Cl [4-280 (1R,2S), 5-Chloro-2-cyclopropyl-4-[(1R, 2S)-1,2-diphenyl-2-hydroxy-ethyl-amino]-6-methoxy-carbonylpyrimidine] | – | – | – | – | – | – | – | – | 50% | 80% | 70% | 40% | 70% | 100% | 20% | 80% | 10% | 10% | 90% | 60% | –
COC(=O)c1nc(C2CC2)nc(NC(C)COc2ccccc2)c1Cl (stereo not drawn) [Compound 4-268, 5-Chloro-2-cyclopropyl-6-methoxycarbonyl-4-(2-phenoxy-1-methylethylamino)-pyrimidine] | – | – | – | – | – | – | – | – | 10% | 60% | 10% | 10% | 50% | 30% | 0% | 10% | 0% | 0% | 10% | 10% | –
COC(=O)c1nc(-c2ccc(C)cc2F)nc(NCc2ccco2)c1Cl [Compound 257-48, 5-Chloro-2-(2-fluoro-4-methylphenyl)-4-(furan-2-ylmethylamino)-6-methoxycarbonyl-pyrimidine] | 10% | 40% | 0% | 20% | 60% | 100% | 40% | 10% | – | – | – | – | – | – | – | – | – | – | – | – | pest or weed control at 1000 g/ha (Setaria faberi (SETFA) [9]; [21]): 10%; pest or weed control at 1000 g/ha [10, 22]: 20%; pest or weed control at 1000 g/ha [11, 23]: 30%; pest or weed control at 1000 g/ha [12, 24]: 90%
COC(=O)c1nc(C2CC2)nc(NCc2cc3cc(Br)ccc3o2)c1Cl [Compound 4-164, 4-(5-Bromo-benzofuran-2-yl)methylamino-5-chloro-2-cyclopropyl-6-methoxycarbonyl-pyrimidine] | – | – | – | – | – | – | – | – | 60% | 100% | 70% | 30% | 80% | 100% | 30% | 50% | 30% | 30% | 100% | 50% | –
